In article PMC9181852, “In Vivo and In Vitro Biological Evaluation and Molecular Docking Studies of Compounds Isolated from Micromeria biflora (Buch. Ham. ex D.Don) Benth” (Molecules, 2022):

Experiments:
Open field sedative test = assay type: in vivo, mice (Balb/c); settings: dose 0.5 mg/kg, 30 min after administration
Protocol: (§1) Healthy mice (Balb/c) with weight ranging from 20 to 22 g and ages 9 to 10 weeks were used in this screening model. The grown animals were provided with standard laboratory conditions such as standard food and water ad libitum. The in vivo biological screening test was performed at the Department of Veterinary Medicine, College of Agriculture and Veterinary Medicine, Qassim University Buraydah, Saudi Arabia, as well as Swabi University, KP, Pakistan, according to published procedures.
The sedative potential of salicylalazine isolated from M. biflora was assessed as per the reported procedure. The animals were divided into different groups, as designated above. The apparatuses used in this screening contained an area of white wood with a 150 cm diameter bordered by stainless steel walls and was separated into 19 squares by black lines. Then, the open field apparatus was positioned inside the light and sound-reduced room. The different groups of animals were administered distilled water, diazepam, and salicylalazine at different doses. Thirty minutes after administration, all groups of animals were permitted to move from the center of the design box. […] Statistical calculations were performed by counting the number of lines crossed by every animal.

[1] = Traction muscle relaxation model; assay type: in vivo, mice (Balb/c); settings: dose 1 mg/kg
Protocol: as §1
A traction screening model was adapted to identify the relaxation of muscle for salicylalazine isolated from M. biflora according to the standard method. The traction model was considered by using metallic wires covered with rubber, and then the wires were linked with each other using a stand around 60 cm upstairs of the lab bench. The animals were distributed into different groups, with each group comprising six animals (n = 6). The various groups of animals were administered water, diazepam, and salicylalazine at different doses. After administration, all groups of animals were subjected to traction screening after 30, 60, and 90 min. […] Traction testing was repeatedly performed to calculate the muscle relaxant ability of salicylalazine as per the reported method.

[2] = Inclined plane muscle relaxation model; assay type: in vivo, mice (Balb/c); settings: dose 1 mg/kg
Protocol: as §1
An inclined plane screening procedure was adapted to identify the muscle relaxation effects of salicylalazine isolated from M. biflora according to a reported procedure. The inclined plane used in screening contained two plywood boards, and these boards were connected, where one board was at 60 0 from the base while the other one was aligned from the base. Various groups of animals were distributed into several groups; each group comprised six animals (n = 6). Animals in each group were administered water (10 mL/kg), standard drug (diazepam, 1 mg/kg), and salicylalazine at different doses of 2.5, 5, 10, 15, and 20 mg/kg, i.p. After various time intervals, such as 30, 60, and 90 min post-administration, animals were allowed on the higher part of the inclined plane for 30 s to drop or hang.

A498 = test: Anticancer MTT assay, A498; assay type: cell-based; settings: Homo sapiens, 24 h
Protocol: (§2) The MTT assay was used to assess the cytotoxicity of salicylalazine isolated from M. biflora as per the previously documented method. For the MTT assay, Gibco BRL was combined with 100 µg/mL of penicillin sodium salts, 10% FBS (Gibco), and sodium carbonate (2 mg/mL). The prepared medium was used to keep three human cancer cell lines: human hepatoma (HepG2), human A498, and renal NCI-h226 non-small cell lung). Mouse hepatocytes, including HepG2 and HepG-R, were planted in 96-well plates. The cell lines were preserved with salicylalazine (1.5–100 μM), hatched for 24 h, and then they were tracked using the MTT procedure^14. This method was used for all tested cell lines. The IC50 value of salicylalazine in different cell lines was calculated from the concentration-effect curves. The standard drug used in this experiment was paclitaxel.

MDR2780AD = test: Anticancer MTT assay, MDR2780AD; assay type: cell-based; settings: 24 h
HepG2 = test: Anticancer MTT assay, HepG2; assay type: cell-based; settings: Homo sapiens, 24 h
Protocol: as §2

NCI-H226 = test: Anticancer MTT assay, NCI-H226; assay type: cell-based; settings: Homo sapiens, 24 h
Protocol: as §2

Hot plate analgesic test = assay type: in vivo, mice (Balb/c); settings: dose 10 mg/kg
Protocol: as §1
The analgesic effect of salicylalazine isolated from M. biflora was obtained with help of a hot plate according to the published method. The animals were distributed into different groups according to the previously reported method. A preliminary screening test was performed on the animals using a hot plate (Harvard apparatus) sustained at 55 ± 2 °C. […] Group I (positive control) was administered with the standard drug, while Group II (negative control) was administered with normal saline. The other groups of animals were administered with 2.5, 5, 10, 15, and 20 mg/kg (PO). […] To avoid tissue damage, a cut-off time of 30 s was used for every animal. The latency time was recorded for all groups (n = 6) at consistent intervals (30, 60, 90, and 120 min).

In the case of `CN1C(=O)CN=C(c2ccccc2)c2cc(Cl)ccc21` [Diazepam, reference compound], the “No of Lines Crossed” value (Open field sedative test) is reported as 9.01 ± 0.51, the “Traction Test (%)” value ([1]; 30 min) is reported as 100 ± 0.00% and the “Traction Test (%)” value ([1]; 60 min) is reported as 100 ± 0.00%. The “Traction Test (%)” value ([1]; 90 min) was 100 ± 0.00%, the “Inclined Plane Test (%)” value ([2]; 30 min) was 100 ± 0.00% and the “Inclined Plane Test (%)” value ([2]; 60 min) was 100 ± 0.00%. The “Inclined Plane Test (%)” value ([2]; 90 min) was 100 ± 0.00%.

For `CC(=O)O[C@H]1C(=O)[C@@]2(C)[C@H]([C@H](OC(=O)c3ccccc3)[C@]3(O)C[C@H](OC(=O)[C@H](O)[C@@H](NC(=O)c4ccccc4)c4ccccc4)C(C)=C1C3(C)C)[C@]1(OC(C)=O)CO[C@@H]1C[C@@H]2O` [Paclitaxel, reference compound], the IC50 (A498) was 95.23 ± 0.23 µM, the IC50 (MDR2780AD) was 180 ± 8 nM and the IC50 (HepG2) was 7.51 ± 0.3 µM. The IC50 (NCI-H226) was 61.29 ± 0.31 µM.

For `COc1cccc(C2(O)CCCCC2CN(C)C)c1` (stereo not drawn) [Tramadol, reference compound], the “Latency time on hot plate” value (Hot plate analgesic test; 30 min) was 24.30 ± 0.07 s, the “Latency time on hot plate” value (Hot plate analgesic test; 60 min) was 25.90 ± 0.08 s and the “Latency time on hot plate” value (Hot plate analgesic test; 90 min) was 24.80 ± 0.14 s. For the same compound, the “Latency time on hot plate” value (Hot plate analgesic test; 120 min) was 24.68 ± 0.40 s.
